What was measured:
Type in all cases: in vivo
[1] = test system: ladysthumb smartweed (Polygonum persicaria); assay: Test C; details: PREEMERGENCE
[2] = test system: ivyleaf morningglory (Ipomoea hederacea); assay: Test C; details: PREEMERGENCE
[3] = test system: Italian ryegrass (Lolium multiflorum); assay: Test D; details: PREEMERGENCE
[4] = test system: purple nutsedge (Cyperus rotundus); assay: Test C; set-up: key: 0 was no effect; 100 was complete control; details: PREEMERGENCE
[5] = test system: redroot pigweed (Amaranthus retroflexus); assay: Test D; details: PREEMERGENCE
[6] = test system: eastern black nightshade (Solanum ptycanthum); assay: Test C; details: PREEMERGENCE
[7] = test system: downy brome (Bromus tectorum); assay: Test D; details: PREEMERGENCE
rape (Brassica napus) = assay: Test D; set-up: key: 0 is no effect; 100 is complete control; details: PREEMERGENCE
[8] = test system: quackgrass (Agropyron repens); assay: Test E pre-/postemergence/post directed; set-up: key: 0 is no effect; 100 is complete control; details: PREEMERGENCE
Summary of the method: (§1)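 Greenhouse pots; compound in non-phytotoxic solvent with surfactant, sprayed preemergence within one day of planting, postemergence at two to four leaf stage (three to twenty cm), or post directed to plant base and soil. Visual injury rated 13 to 21 days after application, 0 (none) to 100 (complete control).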

[9] = test system: sandbur (Cenchrus echinatus); assay: Test E pre-/postemergence/post directed; set-up: key: 0 is no effect; 100 is complete control; details: PREEMERGENCE, Rate 250 g/ha
Summary of the method: as §1

[10] = test system: common chickweed (Stellaria media); assay: Test E pre-/postemergence/post directed; set-up: key: 0 is no effect; 100 is complete control; details: PREEMERGENCE
Summary of the method: as §1

[11] = test system: leafy spurge (Euphorbia esula); assay: Test E pre-/postemergence/post directed; set-up: key: 0 is no effect; 100 is complete control; details: PREEMERGENCE
Summary of the method: as §1

B. signalgrass = assay: Test E pre-/postemergence/post directed; set-up: key: 0 is no effect; 100 is complete control; details: PREEMERGENCE
Summary of the method: as §1

[12] = test system: johnson grass (Sorghum halepense); assay: Test E pre-/postemergence/post directed; set-up: key: 0 is no effect; 100 is complete control; details: PREEMERGENCE, Rate 250 g/ha
Summary of the method: as §1

[13] = test system: arrowleaf sida (Sida rhombifolia); assay: Test E pre-/postemergence/post directed; set-up: key: 0 is no effect; 100 is complete control; details: PREEMERGENCE
Summary of the method: as §1

[14] = test system: green foxtail (Setaria viridis); assay: Test E pre-/postemergence/post directed; set-up: key: 0 is no effect; 100 is complete control; details: PREEMERGENCE
Summary of the method: as §1

[15] = test system: pitted morningglory (Ipomoea lacunosa); assay: Test E pre-/postemergence/post directed; set-up: key: 0 is no effect; 100 is complete control; details: PREEMERGENCE
Summary of the method: as §1

[16] = test system: alexandergrass (Brachiaria plantaginea); assay: Test E pre-/postemergence/post directed; set-up: key: 0 is no effect; 100 is complete control; details: PREEMERGENCE, Rate 250 g/ha
Summary of the method: as §1

[17] = test system: annual bluegrass (Poa annua); assay: Test E pre-/postemergence/post directed; set-up: key: 0 is no effect; 100 is complete control; details: PREEMERGENCE
Summary of the method: as §1

[18] = test system: Spanishneedles (Bidens bipinnata); assay: Test E pre-/postemergence/post directed; set-up: key: 0 is no effect; 100 is complete control; details: PREEMERGENCE, Rate 250 g/ha
Summary of the method: as §1

[19] = test system: windgrass (Apera spica-venti); assay: Test D; set-up: key: 0 is no effect; 100 is complete control; details: PREEMERGENCE

## Cc1cnc(-c2ccc(C(F)(F)F)cc2)nc1Cc1cccc(C(F)(F)F)c1 [Example 1, 5-methyl-2-[4-(trifluoromethyl)phenyl]-4-[[3-(trifluoromethyl)phenyl]methyl]pyrimidine]
[1]; Rate 35 g/ha
  Plant response rating, Ladysthumb: 25
[1]; Rate 70 g/ha
  Plant response rating, Ladysthumb: 90
[1]; Rate 140 g/ha
  Plant response rating, Ladysthumb: 95
[2]; Rate 35 g/ha
  Plant response rating, I. morningglory: 15
[2]; Rate 70 g/ha
  Plant response rating, I. morningglory: 15
[2]; Rate 140 g/ha
  Plant response rating, I. morningglory: 20
[3]; Rate 31 g/ha
  Plant response rating, I. Ryegrass: 10
[3]; Rate 62 g/ha
  Plant response rating, I. Ryegrass: 40
[4]; Rate 35 g/ha
  Plant response rating, Purple nutsedge: 0
[4]; Rate 70 g/ha
  Plant response rating, Purple nutsedge: 0
[4]; Rate 140 g/ha
  Plant response rating, Purple nutsedge: 0
[5]; Rate 31 g/ha
  Plant response rating, Redroot pigweed: 75
[5]; Rate 62 g/ha
  Plant response rating, Redroot pigweed: 70
[5]; Rate 125 g/ha
  Plant response rating, Redroot pigweed: 75
[5]; Rate 250 g/ha
  Plant response rating, Redroot pigweed: 70
[6]; Rate 35 g/ha
  Plant response rating, E. blacknightsh: 90
[6]; Rate 70 g/ha
  Plant response rating, E. blacknightsh: 90
[6]; Rate 140 g/ha
  Plant response rating, E. blacknightsh: 95
[7]; Rate 31 g/ha
  Plant response rating, Downy brome: 30
[7]; Rate 62 g/ha
  Plant response rating, Downy brome: 50
[7]; Rate 125 g/ha
  Plant response rating, Downy brome: 60
Rape (Brassica napus); Rate 31 g/ha
  Plant response rating, Rape: 30
Rape (Brassica napus); Rate 62 g/ha
  Plant response rating, Rape: 75
Rape (Brassica napus); Rate 125 g/ha
  Plant response rating, Rape: 100
Rape (Brassica napus); Rate 250 g/ha
  Plant response rating, Rape: 100
[8]; Rate 32 g/ha
  Plant response rating, Quackgrass: 65
[8]; Rate 64 g/ha
  Plant response rating, Quackgrass: 80
[8]; Rate 125 g/ha
  Plant response rating, Quackgrass: 100
[9]
  Plant response rating, Sandbur: 100
[10]; Rate 32 g/ha
  Plant response rating, Com. chickweed: 30
[10]; Rate 64 g/ha
  Plant response rating, Com. chickweed: 95
[10]; Rate 125 g/ha
  Plant response rating, Com. chickweed: 100
[11]; Rate 32 g/ha
  Plant response rating, Leafy spurge: 75
[11]; Rate 64 g/ha
  Plant response rating, Leafy spurge: 95
[11]; Rate 125 g/ha
  Plant response rating, Leafy spurge: 100
B. signalgrass; Rate 32 g/ha
  Plant response rating, B. signalgrass: 20
B. signalgrass; Rate 64 g/ha
  Plant response rating, B. signalgrass: 90
B. signalgrass; Rate 125 g/ha
  Plant response rating, B. signalgrass: 100
[12]
  Plant response rating, Johnsongrass: 100
[13]; Rate 32 g/ha
  Plant response rating, Arrowleaf sida: 98
[13]; Rate 64 g/ha
  Plant response rating, Arrowleaf sida: 98
[13]; Rate 125 g/ha
  Plant response rating, Arrowleaf sida: 100
[14]; Rate 32 g/ha
  Plant response rating, Green foxtail: 100
[14]; Rate 64 g/ha
  Plant response rating, Green foxtail: 100
[14]; Rate 125 g/ha
  Plant response rating, Green foxtail: 100
[15]; Rate 125 g/ha
  Plant response rating, P. morninglory: 100
[15]; Rate 250 g/ha
  Plant response rating, P. morninglory: 100
[16]
  Plant response rating, Alexandergrass: 100
[17]; Rate 32 g/ha
  Plant response rating, A. bluegrass: 90
[17]; Rate 64 g/ha
  Plant response rating, A. bluegrass: 100
[17]; Rate 125 g/ha
  Plant response rating, A. bluegrass: 100
[18]
  Plant response rating, Spanishneedles: 100
[19]; Rate 31 g/ha
  Plant response rating, Windgrass: 60
[19]; Rate 62 g/ha
  Plant response rating, Windgrass: 100
[19]; Rate 125 g/ha
  Plant response rating, Windgrass: 100
[19]; Rate 250 g/ha
  Plant response rating, Windgrass: 100
